In general, melting point refers to the temperature, or range, at which the solid turns liquid.

65 compounds from a melting point compilation (Tetko et al.; mined from patent text by program, amines drawn as free bases though some values may be those of a salt) can be followed below.

Structures are written as SMILES. Some results are limits rather than exact numbers.

On to `CCNc1nc(OC)c(C(=O)NC2CCN(C3CCCCC3)C2)nc1Cl` (stereo not given), for which the melting point lay within 171 to 173 °C.

With `Oc1ccc2c(c1)C(n1cc[nH]c1=S)CCC2` (stereo not given), the melting point was in the range of 195 to 196 °C.

Turning to `O=C1N(c2cc(Cl)cc(Cl)c2)C(=O)C2(Cc3ccc(Br)cc3)CNCCN12` (stereo not given), the melting point came to 92.5 °C.

`Cc1cc2c(cc1C)N(C)c1cscc1C(=O)N2CCN(C)C` returned a melting point of 119 to 120 °C.

For the compound `O=c1c(CCO)cnc2c3ccccc3ccn12`, the melting point was in the range of 185 to 187 °C.

For `CC(=O)N1CCN(c2cccc(F)n2)CC1`, the melting point was in the range of 102 to 103 °C.

On to `Nc1cccc(Sc2ccc3c(c2)OCC(=O)N3)c1`, for which the melting point fell in the range of 181 to 182 °C.

With `O=C(O)c1cc2cccnc2nc1C(=O)O`, the melting point lay in the range of 199 to 202 °C.

The compound `CCN(CC)C(=O)C(C)N1C(=O)C(NC(=O)OCc2ccccc2)N=C(c2ccccc2)c2ccccc21` (stereo not given) showed a melting point of 170 to 171 °C.

In turn, `Cc1cc(OCc2ccc(-c3ccccc3-c3nnn[nH]3)cc2)c(C(=O)O)c(C)n1` yielded a melting point of 237 °C.

`CN(C)Cc1nc(-c2ncn3c2CN(C)C(=O)c2c(Cl)cccc2-3)no1` gave a melting point of 152 to 153 °C.

As to `CN1CCCN=C1C(Cl)(Cl)[N+](=O)[O-]`, the melting point lay in the range of 92 to 93 °C.

On to `COc1cc(C(=O)O)cc(C(F)(F)F)c1`, for which the melting point fell in the range of 131 to 135 °C.

As to `NS(=O)(=O)c1cccc(NC(=O)c2cnn3c(C(F)F)cc(-c4ccc(C(F)(F)F)c(Cl)c4)nc23)c1`, the melting point was 272 °C.

Compound `O=C(O)c1cnc(Cl)nc1-c1ccccc1` had a melting point of 105 to 110 °C.

The compound `Cn1c(C(=O)N=[N+]=[N-])c(-c2ccccc2)c2cc([N+](=O)[O-])ccc21` came in with a melting point of 262 to 264 °C.

Consider `CC(C)c1cc(Oc2c(Cl)cc(CP(=O)(O)O)cc2Cl)ccc1O`, for which the melting point fell in the range of 178 to 181 °C.

As to `OC(C=CCN1CCC(O)(c2ccc(Cl)cc2)CC1)c1ccc(F)cc1` (stereo not given), the melting point lay within 126 to 127 °C.

In the case of `CCCn1c(=O)c2c(NC)n[nH]c2n(Cc2cccnc2)c1=O`, the melting point is over 300 °C.

In turn, `COc1cc(C(=O)c2nc3ccccc3[nH]2)cc([N+](=O)[O-])c1OC` showed a melting point of 212 to 213 °C.

Compound `S=C(NCCN(Cc1ccc(Cl)c(Cl)c1)c1ccc(Br)cn1)Nc1ccc2nn[nH]c2c1` registered a melting point of 190 to 192 °C.

As for `CC(=O)O[C@@](Cn1cncn1)(c1ccccc1F)[C@@H](C)n1ccnn1`, the melting point fell in the range of 133 to 134 °C.

In turn, `CC1NCCc2ccccc21` (stereo not given) showed a melting point of 60 °C.

`FC(F)(F)Sc1c(-c2ccc(Cl)cc2)[nH]c(C(F)(F)F)c1Br` registered a melting point of 87 to 88.5 °C.

Compound `Cc1cccc(NC(=O)NC2N=C(C3CCCCC3)c3cccc(C)c3N(CC(=O)N3CCCCCCC3)C2=O)c1` (stereo not given) displayed a melting point of 154 to 155 °C.

In turn, `Cc1cn(C)c2cc(NC(=O)c3ccc(C(C)(C)O)cc3)ncc12` displayed a melting point of 196 to 197 °C.

With `CC(C)=CCc1c(O)ccc(C(=O)C=Cc2ccc(O)cc2)c1O`, the melting point lay in the range of 75 to 76 °C.

In turn, `Clc1ccc(-c2nn(-c3ccc(Br)cc3)cc2CCc2nnn[nH]2)cc1` displayed a melting point of 164 to 166 °C.

`NS(=O)(=O)c1ccc(-n2nc(C(=O)O)cc2-c2ccc(Cl)cc2)cc1` registered a melting point of 126 to 128 °C.

For the compound `O=C(N[C@@H]1CCc2c(Br)ccc(N3CCNCC3)c2C1)c1ccc(N2CCOCC2)cc1`, the melting point was 228 to 229 °C.

For the compound `CC(C)OC(=O)c1cnn(-c2ccccn2)c1S(N)(=O)=O`, the melting point lay within 123 to 124 °C.

`O=CN[C@H]1CC[C@H](CCN2CCN(c3nccc4c3CCO4)CC2)CC1` gave a melting point of 170 °C.

The compound `Nc1ccc(Oc2cccc(C(F)(F)F)c2Cl)cc1` registered a melting point of 65 to 66.5 °C.

In turn, `CC1CCN(CCCC(=O)c2ccc3c(c2)Cc2cc(C(=O)CCCN4CCC(C)CC4)ccc2-3)CC1` displayed a melting point of 180 to 181 °C.

For the compound `Nc1nc(Cl)cc(OC(F)F)n1`, the melting point fell in the range of 118 to 119 °C.

The compound `COc1ccc(C2CCN(c3c(C)c(C)c4c(c3C)C(Nc3ccccc3)C(C)(C)O4)CC2)cc1OC` (stereo not given) yielded a melting point of 138 to 140 °C.

As for `O=C1Nc2c(F)cc(F)cc2C1=O`, the melting point lay within 188 to 194 °C.

On to `CC(C)(COCC(C)(C)c1ccc(O)cc1)c1ccc(O)cc1`, for which the melting point lay within 69.2 to 70 °C.

Consider `Cc1ccccc1N=C(C#N)c1c(Cl)cccc1Cl`, for which the melting point turned out to be 55 °C.

The compound `Cc1cc(C)c2c(c1O)CCC2=O` showed a melting point of 152 to 154 °C.

Compound `CC(C)C(=O)NC1CCc2c(c3cc(-c4ccccn4)ccc3n2Cc2cccc(F)c2)C1` (stereo not given) displayed a melting point of 228 to 230 °C.

For `O=Cc1ccc(O)c(O)c1Cl`, the melting point is 193 to 195 °C.

Regarding `CCc1c(CC)n(Cc2ccccc2Cl)c2cc(C(=O)OC)ccc12`, the melting point is 86 to 88 °C.

The compound `CCOC(=O)Cc1sc(C(C)(C)c2c(Cl)cc(-n3ncc(=O)[nH]c3=O)cc2Cl)nc1-c1ccccc1` returned a melting point of 148 °C.

As for `COP(=O)(OC)C(O)c1ccccc1` (stereo not given), the melting point lay in the range of 85 to 86 °C.

In turn, `Cn1c(CCc2ccc(C#N)cc2)nc2cc(NS(=O)(=O)c3ccccc3)ccc21` gave a melting point of 222 to 225 °C.

As to `CC(C)OC(=O)C1=C(c2cccc([N+](=O)[O-])c2)N2C(=O)N(C)NC2=NC1C` (stereo not given), the melting point is 255 to 256 °C.

As for `COc1ncnc2c(Cl)c(NC3=NCCN3)ccc12`, the melting point was 238 to 239 °C.

On to `CC(Oc1ccc2c(c1)C(O)C(Cc1cccc(C(=O)O)c1)CO2)c1ccc2ccccc2n1` (stereo not given), for which the melting point is 70 to 73 °C.

`CS(=O)(=O)c1ccc(-c2nn3c(c2-c2ccc(F)cc2)OCCCC3)cc1` returned a melting point of 167 to 168 °C.

`CC(CS)C(=O)N(C)c1cncc(C(=O)O)c1` (stereo not given) returned a melting point of 190 to 192 °C.

Take `Fc1c(F)c(F)c2c(CCNCc3cccc(OCC(F)(F)F)c3)c[nH]c2c1F`: the melting point is 107 to 108 °C.

For `CN1CC(CO)C=C2c3cccc4c3c(cn4C(C)(C)C)CC21` (stereo not given), the melting point lay in the range of 181 to 183 °C.

For `NNc1cc(-c2ccccc2)c2cc(Cl)ccc2n1`, the melting point is 156 to 157 °C.

The compound `CC(NC(=O)CC(CNC(=O)OC(C)(C)C)c1ccc(Cl)c(Cl)c1)c1ccccc1` (stereo not given) gave a melting point of 161 to 162 °C.

For the compound `O=c1c(Br)c(CCC2CC2)nc2ccccn12`, the melting point is 162 to 164 °C.

`COc1cccc(C=O)c1OC(C)=O` yielded a melting point of 75.4 to 76.2 °C.

Compound `COc1ccc(N2CCN(c3c(C)c(C)c4c(c3C)CC(C)(CN3CCC5(CC3)OCCO5)O4)CC2)cc1` (stereo not given) showed a melting point of 165 to 167 °C.

Consider `Cc1ncn(-c2ccc(N3C[C@H](CO)OC3=O)cc2F)n1`, for which the melting point lay within 190 to 192 °C.

In the case of `Cc1ccc(S(=O)(=O)OCC2CCCc3scnc32)cc1` (stereo not given), the melting point lay in the range of 64 to 65 °C.

`CCc1nc(C2CC2)c(C(=O)O)n1Cc1ccc2oc(-c3ccccc3-c3nnn[nH]3)c(Br)c2c1` yielded a melting point of 198 °C.

In turn, `CN(C)c1cc(CC#N)cc(Cc2nc3c(F)c(F)cc(F)c3s2)c1` displayed a melting point of 99 to 100 °C.

In the case of `C=CCCCCCCCCOC(=O)C=Cc1ccccc1O`, the melting point was found to be 58 °C.

In turn, `CCC(NS(C)(=O)=O)P(=O)(Oc1ccccc1)Oc1ccccc1` (stereo not given) registered a melting point of 136 to 139 °C.

In turn, `COc1ccc2cc(S(N)(=O)=O)oc2c1` yielded a melting point of 148 to 149 °C.
